Data reported in the NIST ThermoML archive (doi:10.1016/j.tca.2004.11.022).
Numbers after ± are expanded uncertainties.

Legend:
[1] = xn = mol fraction of the nth substance listed; conditions: 101 kPa, Liquid; for mass density: Vibrating tube method; for speed of sound: Pulse-echo method
[2] = molar heat capacity at constant pressure; xn = mol fraction of the nth substance listed; conditions: 101 kPa, Liquid, Small sample (50 mg) DSC

`COC(=O)OC` [dimethyl carbonate] + CCCCCCCC showed a mass density ([1]; 288.15 K, x1 = 0.05047) of 715.14 ± 0.27 kg/m3, a mass density ([1]; 288.15 K, x1 = 0.1072) of 725.36 ± 0.27 kg/m3 and a mass density ([1]; 288.15 K, x1 = 0.1969) of 743.56 ± 0.29 kg/m3. For the same compound, the mass density ([1]; 288.15 K, x1 = 0.2958) was 766.42 ± 0.31 kg/m3, the mass density ([1]; 288.15 K, x1 = 0.4018) was 794.6 ± 0.34 kg/m3 and the mass density ([1]; 288.15 K, x1 = 0.5011) was 825 ± 0.38 kg/m3. It also gave a mass density ([1]; 288.15 K, x1 = 0.5974) of 858.8 ± 0.4 kg/m3, a mass density ([1]; 288.15 K, x1 = 0.699) of 900.18 ± 0.42 kg/m3 and a mass density ([1]; 288.15 K, x1 = 0.7982) of 947.83 ± 0.45 kg/m3. The mass density ([1]; 288.15 K, x1 = 0.8992) was 1005.83 ± 0.49 kg/m3, the mass density ([1]; 288.15 K, x1 = 0.949) was 1038.95 ± 0.52 kg/m3 and the mass density ([1]; 293.15 K, x1 = 0.05047) was 710.88 ± 0.27 kg/m3. It also gave a mass density ([1]; 293.15 K, x1 = 0.1072) of 721.13 ± 0.27 kg/m3, a mass density ([1]; 293.15 K, x1 = 0.1969) of 739.1 ± 0.29 kg/m3 and a mass density ([1]; 293.15 K, x1 = 0.2958) of 761.79 ± 0.31 kg/m3. The mass density ([1]; 293.15 K, x1 = 0.4018) was 789.7 ± 0.34 kg/m3, the mass density ([1]; 293.15 K, x1 = 0.5011) was 819.9 ± 0.38 kg/m3 and the mass density ([1]; 293.15 K, x1 = 0.5974) was 853.5 ± 0.4 kg/m3. For the same compound, the mass density ([1]; 293.15 K, x1 = 0.699) was 894.47 ± 0.42 kg/m3, the mass density ([1]; 293.15 K, x1 = 0.7982) was 941.92 ± 0.45 kg/m3 and the mass density ([1]; 293.15 K, x1 = 0.8992) was 999.55 ± 0.49 kg/m3. The mass density ([1]; 293.15 K, x1 = 0.949) was 1032.56 ± 0.52 kg/m3, the speed of sound ([1]; 298.15 K, x1 = 0.05047) was 1165 ± 1.4 m/s and the speed of sound ([1]; 298.15 K, x1 = 0.1072) was 1158.1 ± 1.4 m/s. The speed of sound ([1]; 298.15 K, x1 = 0.1969) was 1148.9 ± 1.4 m/s, the speed of sound ([1]; 298.15 K, x1 = 0.2958) was 1141.5 ± 1.4 m/s and the speed of sound ([1]; 298.15 K, x1 = 0.4018) was 1136.1 ± 1.4 m/s. For the same compound, the speed of sound ([1]; 298.15 K, x1 = 0.5011) was 1133.7 ± 1.4 m/s, the speed of sound ([1]; 298.15 K, x1 = 0.5974) was 1134.2 ± 1.5 m/s and the speed of sound ([1]; 298.15 K, x1 = 0.699) was 1138.7 ± 1.5 m/s. For the same compound, the speed of sound ([1]; 298.15 K, x1 = 0.7982) was 1149.1 ± 1.5 m/s, the speed of sound ([1]; 298.15 K, x1 = 0.8992) was 1167.7 ± 1.6 m/s and the speed of sound ([1]; 298.15 K, x1 = 0.949) was 1180.9 ± 1.6 m/s. For the same compound, the mass density ([1]; 298.15 K, x1 = 0.05047) was 706.69 ± 0.27 kg/m3, the mass density ([1]; 298.15 K, x1 = 0.1072) was 716.89 ± 0.27 kg/m3 and the mass density ([1]; 298.15 K, x1 = 0.1969) was 734.68 ± 0.29 kg/m3. The mass density ([1]; 298.15 K, x1 = 0.2958) was 757.15 ± 0.31 kg/m3, the mass density ([1]; 298.15 K, x1 = 0.4018) was 784.9 ± 0.34 kg/m3 and the mass density ([1]; 298.15 K, x1 = 0.5011) was 814.8 ± 0.38 kg/m3. The mass density ([1]; 298.15 K, x1 = 0.5974) was 848.1 ± 0.39 kg/m3, the mass density ([1]; 298.15 K, x1 = 0.699) was 888.77 ± 0.42 kg/m3 and the mass density ([1]; 298.15 K, x1 = 0.7982) was 935.98 ± 0.45 kg/m3. The mass density ([1]; 298.15 K, x1 = 0.8992) was 993.3 ± 0.49 kg/m3, the mass density ([1]; 298.15 K, x1 = 0.949) was 1026.12 ± 0.51 kg/m3 and the mass density ([1]; 308.15 K, x1 = 0.05047) was 698.46 ± 0.27 kg/m3. It also gave a mass density ([1]; 308.15 K, x1 = 0.1072) of 708.37 ± 0.28 kg/m3, a mass density ([1]; 308.15 K, x1 = 0.1969) of 725.85 ± 0.29 kg/m3 and a mass density ([1]; 308.15 K, x1 = 0.2958) of 747.86 ± 0.31 kg/m3. For the same compound, the mass density ([1]; 308.15 K, x1 = 0.4018) was 775.1 ± 0.33 kg/m3, the mass density ([1]; 308.15 K, x1 = 0.5011) was 804.5 ± 0.37 kg/m3 and the mass density ([1]; 308.15 K, x1 = 0.5974) was 837.3 ± 0.39 kg/m3. The mass density ([1]; 308.15 K, x1 = 0.699) was 877.52 ± 0.41 kg/m3, the mass density ([1]; 308.15 K, x1 = 0.7982) was 924.07 ± 0.44 kg/m3 and the mass density ([1]; 308.15 K, x1 = 0.8992) was 980.86 ± 0.48 kg/m3. For the same compound, the mass density ([1]; 308.15 K, x1 = 0.949) was 1013.24 ± 0.51 kg/m3, the “molar heat capacity at constant pressure” value ([2]; 288.15 K, x1 = 0.05306) was 245.12 ± 4.9 J/K/mol and the “molar heat capacity at constant pressure” value ([2]; 288.15 K, x1 = 0.1016) was 240.86 ± 4.8 J/K/mol. The “molar heat capacity at constant pressure” value ([2]; 288.15 K, x1 = 0.2012) was 232.99 ± 4.7 J/K/mol, the “molar heat capacity at constant pressure” value ([2]; 288.15 K, x1 = 0.2999) was 225.81 ± 4.5 J/K/mol and the “molar heat capacity at constant pressure” value ([2]; 288.15 K, x1 = 0.4012) was 219.02 ± 4.4 J/K/mol. The “molar heat capacity at constant pressure” value ([2]; 288.15 K, x1 = 0.4549) was 215.27 ± 4.3 J/K/mol, the “molar heat capacity at constant pressure” value ([2]; 288.15 K, x1 = 0.5037) was 211.61 ± 4.2 J/K/mol and the “molar heat capacity at constant pressure” value ([2]; 288.15 K, x1 = 0.5561) was 207.58 ± 4.2 J/K/mol. For the same compound, the “molar heat capacity at constant pressure” value ([2]; 288.15 K, x1 = 0.6482) was 199.24 ± 4 J/K/mol, the “molar heat capacity at constant pressure” value ([2]; 288.15 K, x1 = 0.7075) was 192.93 ± 3.9 J/K/mol and the “molar heat capacity at constant pressure” value ([2]; 288.15 K, x1 = 0.7982) was 182.94 ± 3.7 J/K/mol. For the same compound, the “molar heat capacity at constant pressure” value ([2]; 288.15 K, x1 = 0.8484) was 177.49 ± 3.5 J/K/mol, the “molar heat capacity at constant pressure” value ([2]; 288.15 K, x1 = 0.9493) was 167.98 ± 3.4 J/K/mol and the “molar heat capacity at constant pressure” value ([2]; 298.15 K, x1 = 0.05306) was 248.71 ± 5 J/K/mol. The “molar heat capacity at constant pressure” value ([2]; 298.15 K, x1 = 0.1016) was 244.21 ± 4.9 J/K/mol, the “molar heat capacity at constant pressure” value ([2]; 298.15 K, x1 = 0.1496) was 240.18 ± 4.8 J/K/mol and the “molar heat capacity at constant pressure” value ([2]; 298.15 K, x1 = 0.2012) was 235.89 ± 4.7 J/K/mol. For the same compound, the “molar heat capacity at constant pressure” value ([2]; 298.15 K, x1 = 0.2999) was 228.26 ± 4.6 J/K/mol, the “molar heat capacity at constant pressure” value ([2]; 298.15 K, x1 = 0.4012) was 220.47 ± 4.4 J/K/mol and the “molar heat capacity at constant pressure” value ([2]; 298.15 K, x1 = 0.4549) was 216.32 ± 4.3 J/K/mol. The “molar heat capacity at constant pressure” value ([2]; 298.15 K, x1 = 0.5037) was 212.23 ± 4.2 J/K/mol, the “molar heat capacity at constant pressure” value ([2]; 298.15 K, x1 = 0.5561) was 207.88 ± 4.2 J/K/mol and the “molar heat capacity at constant pressure” value ([2]; 298.15 K, x1 = 0.6482) was 199.37 ± 4 J/K/mol. For the same compound, the “molar heat capacity at constant pressure” value ([2]; 298.15 K, x1 = 0.7982) was 183.94 ± 3.7 J/K/mol, the “molar heat capacity at constant pressure” value ([2]; 298.15 K, x1 = 0.8484) was 178.74 ± 3.6 J/K/mol and the “molar heat capacity at constant pressure” value ([2]; 298.15 K, x1 = 0.9493) was 169.06 ± 3.4 J/K/mol. For the same compound, the “molar heat capacity at constant pressure” value ([2]; 308.15 K, x1 = 0.05306) was 252.62 ± 5 J/K/mol, the “molar heat capacity at constant pressure” value ([2]; 308.15 K, x1 = 0.1016) was 248.11 ± 5 J/K/mol and the “molar heat capacity at constant pressure” value ([2]; 308.15 K, x1 = 0.1496) was 243.91 ± 4.9 J/K/mol. For the same compound, the “molar heat capacity at constant pressure” value ([2]; 308.15 K, x1 = 0.2012) was 239.35 ± 4.8 J/K/mol, the “molar heat capacity at constant pressure” value ([2]; 308.15 K, x1 = 0.2999) was 231.22 ± 4.6 J/K/mol and the “molar heat capacity at constant pressure” value ([2]; 308.15 K, x1 = 0.4012) was 222.77 ± 4.5 J/K/mol. The “molar heat capacity at constant pressure” value ([2]; 308.15 K, x1 = 0.4549) was 218.33 ± 4.4 J/K/mol, the “molar heat capacity at constant pressure” value ([2]; 308.15 K, x1 = 0.5037) was 213.92 ± 4.3 J/K/mol and the “molar heat capacity at constant pressure” value ([2]; 308.15 K, x1 = 0.5561) was 209.21 ± 4.2 J/K/mol. The “molar heat capacity at constant pressure” value ([2]; 308.15 K, x1 = 0.5998) was 205.31 ± 4.1 J/K/mol, the “molar heat capacity at constant pressure” value ([2]; 308.15 K, x1 = 0.6482) was 200.7 ± 4 J/K/mol and the “molar heat capacity at constant pressure” value ([2]; 308.15 K, x1 = 0.7982) was 185.39 ± 3.7 J/K/mol. The “molar heat capacity at constant pressure” value ([2]; 308.15 K, x1 = 0.8484) was 180.34 ± 3.6 J/K/mol, the “molar heat capacity at constant pressure” value ([2]; 308.15 K, x1 = 0.8969) was 175.52 ± 3.5 J/K/mol and the “molar heat capacity at constant pressure” value ([2]; 308.15 K, x1 = 0.9493) was 170.5 ± 3.4 J/K/mol.
